Data from publication PMC9833666, “Designing and identifying β-hairpin peptide macrocycles with antibiotic potential” (Science Advances, 2023).
Read-outs that look alike come from different tables or passages of the source. Bridge positions count the residues as written; N and C are the ends. Peptide text beside a SMILES is read from it.

What was measured:
[1] = tested on: Acinetobacter baumannii AB5075; settings: for AB5075 MIC FBS: 100% fetal bovine serum; for AB5075 MIC MH: Mueller-Hinton
Method: MICs were performed by a modifiedClinical and Laboratory Standards Institute) procedure. […] Separately, E. coli W3110 or A. baumannii AB5075 was grown overnight in 5 ml of standard MH at 37°C. Cells from these cultures were diluted to a concentration of 5 × 10^5 to 6 × 10^5 cells/ml in either standard MH, MHII, RPMI, or fetal bovine serum, and 90 μl was added to each well of the 96-well plate containing diluted peptide. Plates were wrapped twice in parafilm and incubated at 37°C for 18 to 24 hours. Wells were examined by eye against wells with no bacteria for signs of growth. MICs were reported as the minimum concentration with no observable growth. In cases where triplicate samples differed, the concentration supported by the median of the three replicates was reported. […]
For consistency, all SynCH peptides were resuspended at 10 mg/ml in water. Peptides were then visually inspected for any lack of solubility (Data File S1). […]
We had this library commercially synthesized and tested its ability to inhibit the growth of Acinetobacter baumannii AB5075, a clinically isolated Carbapenem Resistant Acinetobacter (CRA) pathogen. MICs were performed in MH as well as 100% FBS, which is likely more representative of the in vivo environment. […]

[2] = tested on: Single-donor human red blood cells; assay: Hemolysis assay; type: cell-based; settings: hemolysis at 128 µg/ml, fold change relative to SySA-5
Method in brief: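 Peptides at 300 μg/ml (SySA library) or 128 μg/ml (SySA-5 optimization library) were incubated in triplicate with washed single-donor RBCs (1 × 10^9 cells/ml) for 3 h at 37 °C. Supernatant A540 was background-normalized to PBS and expressed relative to 1% Triton X-100 (100% hemolysis).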

SMILES | AB5075 MIC FBS ([1]; median of triplicate) [µg/mL] | AB5075 MIC MH ([1]; median of triplicate) [µg/mL] | Fold Change Hemolysis [2] | AB5075 MIC FBS ([1]; replicate 1) [µg/mL] | AB5075 MIC FBS ([1]; replicate 2) [µg/mL] | AB5075 MIC FBS ([1]; replicate 3) [µg/mL] | AB5075 MIC MH ([1]; replicate 1) [µg/mL] | AB5075 MIC MH ([1]; replicate 2) [µg/mL] | AB5075 MIC MH ([1]; replicate 3) [µg/mL]
CC(C)C[C@@H]1NC(=O)[C@H](CCCNC(=N)N)NC(=O)[C@H](C(C)C)NC(=O)[C@H](CCCCN)NC(=O)[C@H](CCCNC(=N)N)NC(=O)[C@H](CCCNC(=N)N)NC(=O)[C@H](CCCNC(=N)N)NC(=O)[C@H](CCCNC(=N)N)NC(=O)[C@H](CCCNC(=N)N)NC(=O)[C@H](CC(C)C)NC(=O)[C@H](CCCNC(=N)N)NC(=O)[C@H](C(C)C)NC(=O)[C@H](CCCNC(=N)N)NC(=O)[C@@H](N)CSSC[C@@H](C(=O)O)NC(=O)[C@H](CCCNC(=N)N)NC1=O [SySA-5.25] (H-CRVRLRRRRRKVRLRC-OH; disulfide 1-16) | > 128 | 32 | 1.5 | – | – | – | – | – | –
CC(C)C[C@@H]1NC(=O)[C@H](CO)NC(=O)[C@H](C(C)C)NC(=O)[C@H](CCCCN)NC(=O)[C@@H]2CSSC[C@H](NC(=O)[C@H](CCCNC(=N)N)NC(=O)[C@H](CC(C)C)NC(=O)[C@H](CCCNC(=N)N)NC(=O)[C@H](C(C)C)NC(=O)[C@H](CCCNC(=N)N)NC(=O)[C@@H](N)CSSC[C@@H](C(=O)O)NC(=O)[C@H](CCCNC(=N)N)NC1=O)C(=O)N[C@@H](CCCNC(=N)N)C(=O)N[C@@H](CCCNC(=N)N)C(=O)NCC(=O)N[C@@H](CCCNC(=N)N)C(=O)N2 [SySA-5.16] (H-CRVRLRCRRGRCKVSLRC-OH; disulfide 1-18, 7-12 (inferred); N-terminus and C-terminus assumed) | – | – | 1.3 | >128 | >128 | >128 | 32 | 64 | 32
CC(C)C[C@@H]1NC(=O)[C@H](CO)NC(=O)[C@H](C(C)C)NC(=O)[C@H](CCCCN)NC(=O)[C@@H]2CSSC[C@H](NC(=O)[C@H](CC(N)=O)NC(=O)[C@H](CC(C)C)NC(=O)[C@H](CCCNC(=N)N)NC(=O)[C@H](C(C)C)NC(=O)[C@H](CCCNC(=N)N)NC(=O)[C@@H](N)CSSC[C@@H](C(=O)O)NC(=O)[C@H](CCC(N)=O)NC1=O)C(=O)N[C@@H](CCCNC(=N)N)C(=O)N[C@@H](CCCNC(=N)N)C(=O)NCC(=O)N[C@@H](CCCNC(=N)N)C(=O)N2 [SySA-5.15] (H-CRVRLNCRRGRCKVSLQC-OH; disulfide 1-18, 7-12 (inferred); N-terminus and C-terminus assumed) | – | – | 1.3 | >128 | >128 | >128 | 16 | 16 | 16
CC(C)C[C@@H]1NC(=O)[C@H](CCCNC(=N)N)NC(=O)[C@H](C(C)C)NC(=O)[C@H](CCCNC(=N)N)NC(=O)[C@H](CC(C)C)NC(=O)[C@@H](N)CSSC[C@@H](C(=O)O)NC(=O)[C@H](C(C)C)NC(=O)[C@H](CCCNC(=N)N)NC(=O)[C@H](CC(C)C)NC(=O)[C@H](CCCNC(=N)N)NC(=O)[C@H](C(C)C)NC(=O)[C@H](CCCCN)NC(=O)[C@H](C(C)C)NC(=O)[C@@H]2CSSC[C@H](NC1=O)C(=O)N[C@@H](CC(N)=O)C(=O)N[C@@H](CCCNC(=N)N)C(=O)N[C@@H](CCCNC(=N)N)C(=O)N[C@@H](CCCNC(=N)N)C(=O)N2 [SySA-5.3] (H-CLRVRLCNRRRCVKVRLRVC-OH; disulfide 1-20, 7-12 (inferred); N-terminus and C-terminus assumed) | – | – | 1.8 | 128 | 128 | 128 | 8 | 8 | 8
CC(C)C[C@@H]1NC(=O)[C@H](CO)NC(=O)[C@H](C(C)C)NC(=O)[C@@H]2CSSC[C@H](NC(=O)[C@H](CC(C)C)NC(=O)[C@H](CCCNC(=N)N)NC(=O)[C@H](C(C)C)NC(=O)[C@H](CCCNC(=N)N)NC(=O)[C@H](CC(C)C)NC(=O)[C@@H](N)CSSC[C@@H](C(=O)O)NC(=O)[C@H](C(C)C)NC(=O)[C@H](CCCNC(=N)N)NC1=O)C(=O)N[C@@H](CCCNC(=N)N)C(=O)N[C@@H](CCCNC(=N)N)C(=O)NCC(=O)N[C@@H](CCCNC(=N)N)C(=O)N2 [SySA-5.13] (H-CLRVRLCRRGRCVSLRVC-OH; disulfide 1-18, 7-12 (inferred); N-terminus and C-terminus assumed) | – | – | 3.2 | >128 | >128 | >128 | 32 | 8 | 16
CC(C)C[C@@H]1NC(=O)[C@H](CCCNC(=N)N)NC(=O)[C@H](C(C)C)NC(=O)[C@H](CCCCN)NC(=O)[C@H](C(C)C)NC(=O)[C@@H]2CSSC[C@H](NC(=O)[C@H](CC(C)C)NC(=O)[C@H](CCCNC(=N)N)NC(=O)[C@H](C(C)C)NC(=O)[C@H](CCCNC(=N)N)NC(=O)[C@@H](N)CSSC[C@@H](C(=O)O)NC(=O)[C@H](CCCNC(=N)N)NC1=O)C(=O)N[C@@H](CCCNC(=N)N)C(=O)N[C@@H](CCCNC(=N)N)C(=O)N[C@@H](CCCNC(=N)N)C(=O)N[C@@H](CCCNC(=N)N)C(=O)N2 [SySA-5.9] (H-CRVRLCRRRRCVKVRLRC-OH; disulfide 1-18, 6-11 (inferred); N-terminus and C-terminus assumed) | – | – | 0.6 | >128 | >128 | >128 | 8 | 8 | 8
CC(C)C[C@@H]1NC(=O)[C@H](CCCNC(=N)N)NC(=O)[C@H](C(C)C)NC(=O)[C@H](CCCCN)NC(=O)[C@H](CCCNC(=N)N)NC(=O)[C@H](CCCNC(=N)N)NC(=O)[C@H](CCCNC(=N)N)NC(=O)[C@H](CCCNC(=N)N)NC(=O)[C@H](CCCNC(=N)N)NC(=O)[C@H](CC(C)C)NC(=O)[C@H](CCCNC(=N)N)NC(=O)[C@H](C(C)C)NC(=O)[C@H](CCCNC(=N)N)NC(=O)[C@H](CC(C)C)NC(=O)[C@@H](N)CSSC[C@@H](C(=O)O)NC(=O)[C@H](C(C)C)NC(=O)[C@H](CCCNC(=N)N)NC1=O [SySA-5.12] (H-CLRVRLRRRRRKVRLRVC-OH; disulfide 1-18) | > 128 | 4 | 3.7 | – | – | – | – | – | –
CC(C)C[C@@H]1NC(=O)[C@H](CO)NC(=O)[C@H](C(C)C)NC(=O)[C@@H]2CSSC[C@H](NC(=O)[C@H](CC(C)C)NC(=O)[C@H](CCCNC(=N)N)NC(=O)[C@H](C(C)C)NC(=O)[C@H](CCCNC(=N)N)NC(=O)[C@H](CC(C)C)NC(=O)[C@@H](N)CSSC[C@@H](C(=O)O)NC(=O)[C@H](C(C)C)NC(=O)[C@H](CCCNC(=N)N)NC1=O)C(=O)N[C@@H](CCCNC(=N)N)C(=O)N[C@@H](CCCNC(=N)N)C(=O)N[C@@H](CCCNC(=N)N)C(=O)N2 [SySA-5.21] (H-CLRVRLCRRRCVSLRVC-OH; disulfide 1-17, 7-11 (inferred); N-terminus and C-terminus assumed) | – | – | 2.4 | 128 | >128 | >128 | 16 | 16 | 32
